The text below walks through data of patent US20230089073A1 (Carmot Therapeutics, Inc., priority 2021, published 2023).

Each structure is given as a SMILES string.

The target in the test is T1, human GLP-1 receptor (Homo sapiens, UniProt P43220).
T1 construct: expressed in transfected cells
T1 sequence (P43220 24-463): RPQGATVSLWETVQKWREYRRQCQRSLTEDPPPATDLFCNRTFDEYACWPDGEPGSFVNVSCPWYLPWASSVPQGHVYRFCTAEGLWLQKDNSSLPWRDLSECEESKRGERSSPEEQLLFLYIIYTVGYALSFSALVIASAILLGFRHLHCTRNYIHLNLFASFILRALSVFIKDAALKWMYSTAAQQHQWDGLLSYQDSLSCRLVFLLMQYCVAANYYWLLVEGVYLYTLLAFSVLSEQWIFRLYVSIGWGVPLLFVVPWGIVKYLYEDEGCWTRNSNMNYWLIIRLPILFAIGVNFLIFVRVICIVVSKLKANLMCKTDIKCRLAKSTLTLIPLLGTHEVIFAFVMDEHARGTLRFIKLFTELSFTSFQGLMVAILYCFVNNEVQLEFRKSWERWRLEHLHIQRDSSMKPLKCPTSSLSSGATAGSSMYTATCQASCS
Nature of the test: GLP-1R cAMP Assay. The format is cell-based. The settings on record: cAMP accumulation in CHO cells stably overexpressing the human GLP-1 receptor; 30 min treatment; HitHunter cAMP kit; read-out: EC50. The method, then: cAMP accumulation was measured in Chinese hamster ovary (CHO) cells stably overexpressing the human GLP-1 receptor using the HitHunter cAMP Assay for Small Molecules Kit (Eurofins). Briefly, cells were grown in Ham's F12 Nutrient Mix with 10% FBS, and lifted with Cell Dissociation Buffer, Enzyme free, PBS based (ThermoFisher). […] The anti-cAMP antibody reagent was then added to cells at a 1:2 ratio and 5 μL of mixture was seeded in 384-well small volume white assay plates, at 10,000 cells/well. Cells were then treated with 50 nL compound using an ECHO 550 acoustic dispenser (Labcyte) in a 20-point dose response format in triplicate for 30 min. Cells were then lysed, and detection reagents added according to the manufacturer's protocol. After overnight incubation, luminescence was measured using a Perkin Elmer Envision plate reader. Dose response curves were analyzed using GraphPad Prism 9.0.
(In general: Cyclic AMP is a second messenger, typically raised through Gs and lowered through Gi signalling.)
As a reminder, the EC50 is the concentration needed to bring the measured effect to its halfway point. For `O=C(O)c1ccc2nc(CN3CCN(C(=O)c4ccc(COc5ccccc5Cl)o4)CC3)n(C[C@@H]3CCO3)c2c1` [Compound 39, 2-[(4-{5-[(2-chlorophenoxy)methyl]furan-2-carbonyl}piperazin-1-yl)methyl]-1-{[(2S)-oxetan-2-yl]methyl}-1H-1,3-benzodiazole-6-carboxylic acid], the EC50 was over 500 nM.

For the compound `O=C(O)c1ccc2nc(CN3CCN(C(=O)c4ccc(COc5cccc(Cl)c5)o4)CC3)n(C[C@@H]3CCO3)c2c1` [Compound 40, 2-[(4-{5-[(3-chlorophenoxy)methyl]furan-2-carbonyl}piperazin-1-yl)methyl]-1-{[(2S)-oxetan-2-yl]methyl}-1H-1,3-benzodiazole-6-carboxylic acid], the EC50 is over 500 nM.

As to `Cc1ccc(OCc2ccc(C(=O)N3CCN(Cc4nc5ccc(C(=O)O)cc5n4C[C@@H]4CCO4)CC3)o2)c(C)c1` [Compound 41, 2-[(4-{5-[(2,4-dimethylphenoxy)methyl]furan-2-carbonyl}piperazin-1-yl)methyl]-1-{[(2S)-oxetan-2-yl]methyl}-1H-1,3-benzodiazole-6-carboxylic acid], the EC50 was 50 to 500 nM.

As for `Cc1ccc(OCc2ccc(C(=O)N3CCN(Cc4nc5ccc(C(=O)O)cc5n4C[C@@H]4CCO4)CC3)o2)cc1` [Compound 42, 2-[(4-{5-[(4-methylphenoxy)methyl]furan-2-carbonyl}piperazin-1-yl)methyl]-1-{[(2S)-oxetan-2-yl]methyl}-1H-1,3-benzodiazole-6-carboxylic acid], the half-maximal effective concentration (EC50) was over 500 nM.

On to `Cc1ccccc1OCc1ccc(C(=O)N2CCN(Cc3nc4ccc(C(=O)O)cc4n3C[C@@H]3CCO3)CC2)o1` [Compound 43, 2-[(4-{5-[(2-methylphenoxy)methyl]furan-2-carbonyl}piperazin-1-yl)methyl]-1-{[(2S)-oxetan-2-yl]methyl}-1H-1,3-benzodiazole-6-carboxylic acid], for which the EC50 is over 500 nM.

On to `Cc1ccc(N(C)c2cccc(C(=O)N3CCN(Cc4nc5ccc(C(=O)O)cc5n4C[C@@H]4CCO4)CC3)c2)c(C)c1` [Compound 45, 2-[(4-{3-[(2,4-dimethylphenyl)(methyl)amino]benzoyl}piperazin-1-yl)methyl]-1-{[(2S)-oxetan-2-yl]methyl}-1H-1,3-benzodiazole-6-carboxylic acid], for which the half-maximal effective concentration (EC50) was under 50 nM.

In the case of `CCn1cncc1Cn1c(CN2CCN(C(=O)c3ccc(COc4ccc(Cl)cc4Cl)o3)CC2)nc2ccc(C(=O)O)cc21` [Compound 47, 2-[(4-{5-[(2,4-dichlorophenoxy)methyl]furan-2-carbonyl}piperazin-1-yl)methyl]-1-[(1-ethyl-1H-imidazol-5-yl)methyl]-1H-1,3-benzodiazole-6-carboxylic acid], the 50% effective concentration (EC50) was under 50 nM.

With `O=C(O)c1ccc2nc(CN3CCN(C(=O)c4cccc(Cc5ccc(Cl)cc5Cl)c4)CC3)n(C[C@@H]3CCO3)c2c1` [Compound 48, 2-[(4-{3-[(2,4-dichlorophenyl)methyl]benzoyl}piperazin-1-yl)methyl]-1-{[(2S)-oxetan-2-yl]methyl}-1H-1,3-benzodiazole-6-carboxylic acid], the concentration giving a half-maximal response (EC50) was 50 to 500 nM.

For `CN(C)C(=O)c1ccc(OCc2ccc(C(=O)N3CCN(Cc4nc5ccc(C(=O)O)cc5n4C[C@@H]4CCO4)CC3)o2)c(F)c1` [Compound 49, 2-{[4-(5-{[4-(dimethylcarbamoyl)-2-fluorophenoxy]methyl}furan-2-carbonyl)piperazin-1-yl]methyl}-1-{[(2S)-oxetan-2-yl]methyl}-1H-1,3-benzodiazole-6-carboxylic acid], the half-maximal effective concentration (EC50) is over 500 nM.

With `Cc1ccc(Nc2cccc(C(=O)N3CCN(Cc4nc5ccc(C(=O)O)cc5n4C[C@@H]4CCO4)CC3)c2)c(Cl)c1` [Compound 50, 2-[(4-{3-[(2-chloro-4-methylphenyl)amino]benzoyl}piperazin-1-yl)methyl]-1-{[(2S)-oxetan-2-yl]methyl}-1H-1,3-benzodiazole-6-carboxylic acid], the EC50 is over 500 nM.

Regarding `Cc1ccc(N(C)c2cccc(C(=O)N3CCN(Cc4nc5ccc(C(=O)O)cc5n4C[C@@H]4CCO4)CC3)c2)c(Cl)c1` [Compound 51, 2-[(4-{3-[(2-chloro-4-methylphenyl)(methyl)amino]benzoyl}piperazin-1-yl)methyl]-1-{[(2S)-oxetan-2-yl]methyl}-1H-1,3-benzodiazole-6-carboxylic acid], the 50% effective concentration (EC50) is under 50 nM.

`CCN(c1cccc(C(=O)N2CCN(Cc3nc4ccc(C(=O)O)cc4n3C[C@@H]3CCO3)CC2)c1)c1ccc(C)cc1Cl` [Compound 52, 2-[(4-{3-[(2-chloro-4-methylphenyl)(ethyl)amino]benzoyl}piperazin-1-yl)methyl]-1-{[(2S)-oxetan-2-yl]methyl}-1H-1,3-benzodiazole-6-carboxylic acid]: the half-maximal effective concentration (EC50) is under 50 nM.

For the compound `O=C(O)c1ccc2nc(CN3CCc4[nH]c5ccc(OC(F)(F)F)cc5c4C3)n(C[C@@H]3CCO3)c2c1` [Compound 53, 1-{[(2S)-oxetan-2-yl]methyl}-2-{[8-(trifluoromethoxy)-1H,2H,3H,4H,5H-pyrido[4,3-b]indol-2-yl]methyl}-1H-1,3-benzodiazole-6-carboxylic acid], the EC50 was over 500 nM.

As to `CCn1cncc1Cn1c(CN2CCN(C(=O)c3cccc(N(C)c4ccc(C)cc4Cl)c3)CC2)nc2ccc(C(=O)O)cc21` [Compound 54, 2-[(4-{3-[(2-chloro-4-methylphenyl)(methyl)amino]benzoyl}piperazin-1-yl)methyl]-1-[(1-ethyl-1H-imidazol-5-yl)methyl]-1H-1,3-benzodiazole-6-carboxylic acid], the EC50 is 50 to 500 nM.

`CCn1cncc1Cn1c(CN2CCN(C(=O)c3ccc(COc4ccc(C)cc4C)o3)CC2)nc2ccc(C(=O)O)cc21` [Compound 55, 2-[(4-{5-[(2,4-dimethylphenoxy)methyl]furan-2-carbonyl}piperazin-1-yl)methyl]-1-[(1-ethyl-1H-imidazol-5-yl)methyl]-1H-1,3-benzodiazole-6-carboxylic acid]: the concentration for a half-maximal effect (EC50) is under 50 nM.

Regarding `CCn1cncc1Cn1c(CN2CCN(C(=O)c3cccc(Cc4ccc(C)cc4Cl)c3)CC2)nc2ccc(C(=O)O)cc21` [Compound 56, 2-[(4-{3-[(2-chloro-4-methylphenyl)methyl]benzoyl}piperazin-1-yl)methyl]-1-[(1-ethyl-1H-imidazol-5-yl)methyl]-1H-1,3-benzodiazole-6-carboxylic acid], the concentration giving a half-maximal response (EC50) is 50 to 500 nM.

Take `CCn1cncc1Cn1c(CN2CCN(C(=O)c3cccc(Nc4ccc(C)cc4Cl)c3)CC2)nc2ccc(C(=O)O)cc21` [Compound 58, 2-[(4-{3-[(2-chloro-4-methylphenyl)amino]benzoyl}piperazin-1-yl)methyl]-1-[(1-ethyl-1H-imidazol-5-yl)methyl]-1H-1,3-benzodiazole-6-carboxylic acid]: the EC50 was over 500 nM.

Take `CCn1cncc1Cn1c(CN2CCN(Cc3ccc(COc4ccc(Cl)cc4Cl)o3)CC2)nc2ccc(C(=O)O)cc21` [Compound 63, 2-{[4-({5-[(2,4-dichlorophenoxy)methyl]furan-2-yl}methyl)piperazin-1-yl]methyl}-1-[(1-ethyl-1H-imidazol-5-yl)methyl]-1H-1,3-benzodiazole-6-carboxylic acid]: the concentration for a half-maximal effect (EC50) was under 50 nM.

As to `Cc1ccc(OCc2cccc(C(=O)N3CCN(Cc4nc5ccc(C(=O)O)cc5n4C[C@@H]4CCO4)CC3)c2)c(Cl)c1` [Compound 64, 2-[(4-{3-[(2-chloro-4-methylphenoxy)methyl]benzoyl}piperazin-1-yl)methyl]-1-{[(2S)-oxetan-2-yl]methyl}-1H-1,3-benzodiazole-6-carboxylic acid], the EC50 lay within 50 to 500 nM.

For the compound `CCn1cncc1Cn1c(CN2CCN(C(=O)c3cccc(COc4ccc(C)cc4Cl)c3)CC2)nc2ccc(C(=O)O)cc21` [Compound 65, 2-[(4-{3-[(2-chloro-4-methylphenoxy)methyl]benzoyl}piperazin-1-yl)methyl]-1-[(1-ethyl-1H-imidazol-5-yl)methyl]-1H-1,3-benzodiazole-6-carboxylic acid], the EC50 lay within 50 to 500 nM.

With `N#Cc1ccc(COc2cccc(C(=O)N3CCN(Cc4nc5ccc(C(=O)O)cc5n4C[C@@H]4CCO4)CC3)c2)c(F)c1` [Compound 66, 2-[(4-{3-[(4-cyano-2-fluorophenyl)methoxy]benzoyl}piperazin-1-yl)methyl]-1-{[(2S)-oxetan-2-yl]methyl}-1H-1,3-benzodiazole-6-carboxylic acid], the EC50 was over 500 nM.

For the compound `CCn1cncc1Cn1c(CN2CCN(C(=O)c3cccc(OCc4ccc(C#N)cc4F)c3)CC2)nc2ccc(C(=O)O)cc21` [Compound 67, 2-[(4-{3-[(4-cyano-2-fluorophenyl)methoxy]benzoyl}piperazin-1-yl)methyl]-1-[(1-ethyl-1H-imidazol-5-yl)methyl]-1H-1,3-benzodiazole-6-carboxylic acid], the 50% effective concentration (EC50) was over 500 nM.

As to `N#Cc1ccc(OCc2cccc(C(=O)N3CCN(Cc4nc5ccc(C(=O)O)cc5n4C[C@@H]4CCO4)CC3)c2)c(F)c1` [Compound 68, 2-[(4-{3-[(4-cyano-2-fluorophenoxy)methyl]benzoyl}piperazin-1-yl)methyl]-1-{[(2S)-oxetan-2-yl]methyl}-1H-1,3-benzodiazole-6-carboxylic acid], the EC50 is over 500 nM.

On to `CCn1cncc1Cn1c(CN2CCN(C(=O)c3cccc(COc4ccc(C#N)cc4F)c3)CC2)nc2ccc(C(=O)O)cc21` [Compound 69, 2-[(4-{3-[(4-cyano-2-fluorophenoxy)methyl]benzoyl}piperazin-1-yl)methyl]-1-[(1-ethyl-1H-imidazol-5-yl)methyl]-1H-1,3-benzodiazole-6-carboxylic acid], for which the EC50 is over 500 nM.
